Results as given in paper PMC10914731, “Homo-BacPROTAC-induced degradation of ClpC1 as a strategy against drug-resistant mycobacteria” (Nature Communications, 2024).
Where “and” joins values, the source holds several entries; their conditions need not be identical. Identical values can stand only once. Like-named read-outs stand apart in the source and are kept apart here. *1 amine or outer side, *2 acyl side, *3 side chain or, on linkers, in order; H or OH if unused. Where a SMILES comes first, the peptide text is derived from it. Bridges are numbered along the chain shown (N, C = ends). Roman numbers before positions name the chains, in order. [ ]: non-standard residue; d: D form. X6 = O=C([C@@H](N[*:1])[C@H](OCC=[*:3])c1ccccc1)[*:2]; NMeLeu(5-OH,4R) = CN[C@@H](C[C@@H](C)CO)C(=O)O; Trp(1-Me) = Cn1cc(C[C@H](N)C(=O)O)c2ccccc21; NMeL = CN[C@@H](CC(C)C)C(=O)O

How the values were obtained:
[1] = biological target: ClpC1 NTD protein (M. tuberculosis) (Mycobacterium tuberculosis, UniProt P9WPC9); assay: biochemical; assay type: binding
in vitro = settings: human
How it was run: (§1)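 Values are bidirectional Caco-2 apparent permeabilities, P(A−B) and P(B−A), given in 10^-6 cm s-1. The efflux ratio divides P(B−A) by P(A−B), and intrinsic permeability averages the two directions.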

Caco-2 monolayers = assay: in vitro; settings: mean value of P(A−B) and P(B−A)
How it was run: as §1

[2] = assay type: in vitro ADME, Mice
How it was run: (§2)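 Steps: incubate compound at 1 µmol/l with liver microsomes (0.5 mg/ml) plus 1 mM NADPH in pH 7.5 Tris-HCl buffer containing MgCl2 at 37 °C; stop aliquots over time with acetonitrile; centrifuge and measure remaining compound by LC-MS/MS; fit first-order decay and convert half-life to %Qh.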

[3] = assay type: in vitro ADME, Rat
How it was run: as §2

[4] = Microsomal stability, human; assay type: in vitro ADME
How it was run: as §2

[5] = Hepatocyte stability, mice; assay type: in vitro ADME
How it was run: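 Clearance, expressed as % of liver blood flow (% Qh), derived from parent-compound half-life by the well-stirred model, with HPLC-MS/MS quantitation after acetonitrile quench. Test compound at 1 µM final added to mouse hepatocyte suspension in 50% serum after 15–30 min acclimation at 37 °C; six samples over up to 6 h.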

[6] = assay type: in vitro ADME, Rat; remark: listed apart in the source
[7] = biological target: His6-tagged ClpC1-NTD substrate, M. smegmatis ClpC1P1P2 (UniProt A0R574+P9WPC9); assay: biochemical; assay type: biochemical; settings: Msm; Measurement 1-6; read-out: 1-Dmax, single measurements
[8] = biological target: ClpC1-NTD substrate, M. tuberculosis ClpC1P1P2 (Mycobacterium tuberculosis, UniProt P9WPC9); assay: biochemical; assay type: biochemical; settings: Mtb
[9] = result in words

ClpC1 NTD protein (M. tuberculosis), sequence (P9WPC9 1-156, looked up, natural form): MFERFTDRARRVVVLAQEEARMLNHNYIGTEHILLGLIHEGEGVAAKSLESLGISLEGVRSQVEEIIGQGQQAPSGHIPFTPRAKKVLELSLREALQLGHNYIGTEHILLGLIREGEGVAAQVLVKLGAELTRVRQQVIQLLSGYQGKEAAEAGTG
ClpC1-NTD substrate, M. tuberculosis ClpC1P1P2, sequence (P9WPC5 whole entry): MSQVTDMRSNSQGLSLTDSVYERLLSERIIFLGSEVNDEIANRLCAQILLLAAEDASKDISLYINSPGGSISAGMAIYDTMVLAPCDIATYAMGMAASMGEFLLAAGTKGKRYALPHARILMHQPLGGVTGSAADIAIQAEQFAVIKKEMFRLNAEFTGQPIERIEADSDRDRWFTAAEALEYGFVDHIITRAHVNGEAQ
ClpC1-NTD substrate, M. tuberculosis ClpC1P1P2, sequence (P9WPC9 whole entry): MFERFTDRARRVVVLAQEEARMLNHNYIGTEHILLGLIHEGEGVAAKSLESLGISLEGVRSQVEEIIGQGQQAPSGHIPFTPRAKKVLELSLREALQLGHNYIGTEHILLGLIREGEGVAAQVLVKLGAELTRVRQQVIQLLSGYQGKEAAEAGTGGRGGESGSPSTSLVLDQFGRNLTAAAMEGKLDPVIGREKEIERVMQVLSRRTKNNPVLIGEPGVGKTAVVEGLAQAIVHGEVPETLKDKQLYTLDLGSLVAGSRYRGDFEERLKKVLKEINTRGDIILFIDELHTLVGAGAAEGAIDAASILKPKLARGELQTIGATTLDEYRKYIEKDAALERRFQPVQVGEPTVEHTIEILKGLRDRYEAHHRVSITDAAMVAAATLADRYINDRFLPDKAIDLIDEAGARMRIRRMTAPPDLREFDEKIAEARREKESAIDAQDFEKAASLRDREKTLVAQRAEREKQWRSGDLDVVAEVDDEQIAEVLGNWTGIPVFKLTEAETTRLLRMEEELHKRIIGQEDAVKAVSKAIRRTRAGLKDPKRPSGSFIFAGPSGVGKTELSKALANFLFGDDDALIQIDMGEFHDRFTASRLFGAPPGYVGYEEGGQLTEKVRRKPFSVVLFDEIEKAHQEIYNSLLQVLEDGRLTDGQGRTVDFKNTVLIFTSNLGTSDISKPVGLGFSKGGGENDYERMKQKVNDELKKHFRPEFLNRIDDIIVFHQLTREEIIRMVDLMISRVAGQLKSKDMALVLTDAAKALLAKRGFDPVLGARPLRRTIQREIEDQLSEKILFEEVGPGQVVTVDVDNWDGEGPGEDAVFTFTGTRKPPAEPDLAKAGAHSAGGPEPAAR
ClpC1-NTD substrate, M. tuberculosis ClpC1P1P2, sequence (P9WPC3 whole entry, further chain): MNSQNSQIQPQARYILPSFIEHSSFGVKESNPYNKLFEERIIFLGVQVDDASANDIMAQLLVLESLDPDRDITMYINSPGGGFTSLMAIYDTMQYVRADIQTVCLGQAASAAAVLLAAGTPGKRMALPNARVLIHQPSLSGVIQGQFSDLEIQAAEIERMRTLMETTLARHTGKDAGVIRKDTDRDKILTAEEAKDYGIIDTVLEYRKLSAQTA
His6-tagged ClpC1-NTD substrate, M. smegmatis ClpC1P1P2, sequence (P9WPC9 1-156, looked up, natural form): as the sequence (P9WPC9 1-156, looked up, natural form) above
His6-tagged ClpC1-NTD substrate, M. smegmatis ClpC1P1P2, sequence (A0R574 whole entry): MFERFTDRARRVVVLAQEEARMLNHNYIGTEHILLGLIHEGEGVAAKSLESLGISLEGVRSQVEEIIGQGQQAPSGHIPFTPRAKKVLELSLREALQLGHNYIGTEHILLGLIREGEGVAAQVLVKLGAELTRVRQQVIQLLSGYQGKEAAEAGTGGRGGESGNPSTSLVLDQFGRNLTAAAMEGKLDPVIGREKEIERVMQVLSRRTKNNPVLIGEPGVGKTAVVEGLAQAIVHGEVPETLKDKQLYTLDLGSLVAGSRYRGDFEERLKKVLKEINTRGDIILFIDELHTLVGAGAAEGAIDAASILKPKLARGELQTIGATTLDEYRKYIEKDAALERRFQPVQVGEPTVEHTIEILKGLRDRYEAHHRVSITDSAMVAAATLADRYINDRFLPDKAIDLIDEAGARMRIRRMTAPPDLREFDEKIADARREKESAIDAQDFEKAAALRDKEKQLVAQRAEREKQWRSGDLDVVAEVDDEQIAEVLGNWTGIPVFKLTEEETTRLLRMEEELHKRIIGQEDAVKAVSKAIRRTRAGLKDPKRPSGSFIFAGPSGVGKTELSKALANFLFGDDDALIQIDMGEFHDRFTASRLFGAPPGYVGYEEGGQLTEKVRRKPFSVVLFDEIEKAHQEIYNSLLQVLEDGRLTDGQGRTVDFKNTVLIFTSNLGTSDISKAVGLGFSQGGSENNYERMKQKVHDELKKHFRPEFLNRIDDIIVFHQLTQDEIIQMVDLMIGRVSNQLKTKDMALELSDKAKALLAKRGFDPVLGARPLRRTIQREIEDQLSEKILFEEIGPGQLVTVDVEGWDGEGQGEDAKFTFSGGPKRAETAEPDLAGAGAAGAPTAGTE

CC(C)C[C@H]1C(=O)N[C@@H](C(C)C)C(=O)N[C@@H](Cc2cn(C)c3ccccc23)C(=O)N(C)[C@@H](C[C@@H](C)CO)C(=O)N[C@@H](C)C(=O)N[C@@H]([C@H](OC/C=C/CO[C@H](c2ccccc2)[C@@H]2NC(=O)[C@H](C)NC(=O)[C@H](C[C@@H](C)CO)N(C)C(=O)[C@H](Cc3cn(C)c4ccccc34)NC(=O)[C@H](C(C)C)NC(=O)[C@H](CC(C)C)N(C)C(=O)[C@H](C(C)C)NC2=O)c2ccccc2)C(=O)N[C@@H](C(C)C)C(=O)N1C [Compound 17] (I: cyclo(A[X6]V[NMeL]V[Trp(1-Me)][NMeLeu(5-OH,4R)]) / II: cyclo(A[X6]V[NMeL]V[Trp(1-Me)][NMeLeu(5-OH,4R)]); staple (E) I:2-II:2)
Kd ([1]; SPR (Supplementary Table 1), read-out: KD ClpC1-NTD Mean ± SD): 23 ± 5 nM | koff ClpC1-NTD ([1]; SPR, single independent measurements): 0.004 s⁻¹ | Kd ([1]; SPR, single independent measurements, read-out: KD ClpC1-NTD): 26.7 nM and 19 nM | koff ([1]; SPR, single independent measurements, read-out: koff ClpC1-NTD): 0.005 s⁻¹ | Papp A→B (in vitro; Caco-2, CACO permeability PEAB, apical to basolateral): < 2.5 ×10⁻⁶ cm/s | Papp B→A (in vitro; Caco-2, Caco-2 permeability P (B-A), basolateral to apical): 0.9 ×10⁻⁶ cm/s | Caco-2 Int. Perm (Caco-2 monolayers): 1.7 10-6 cm s-1 | Microsomal Stability Mouse QH ([2]; Mouse): <24.200% | Microsomal Stability Mice ([2]; clearance in microsomes): < 24 %Qh | Microsomal Stability Rat QH ([3]; Rat): <23.100% | Microsomal Stability Rat ([3]; clearance in microsomes): < 23 %Qh | Microsomal Stability Human QH ([4]; Human): <24.400% | Microsomal Stability Human ([4]; clearance in microsomes): < 24 %Qh | Hepatocyte Stability Mouse QH ([5]; Mouse): 20.539% | Hepatocyte Mice ([5]; clearance in hepatocytes): 21 %Qh | Hepatocyte Stability Rat QH ([6]; Rat): 12.036% | Hepatocyte Rat ([6]; clearance in hepatocytes): 12 %Qh | 1-Dmax (percent substrate remaining at maximal degradation) [7]: 30.2% | DC50 ([8]; Measurement 1-4, read-out: DC50, single measurements): > 100000 nM | DC50 ([8]; mean of the measurements, read-out: DC50, Mean): > 100000 nM | stability upon storage [9]: compound decomposition upon storage
